We go through 29 compounds from BindingDB's records for doi:10.1016/j.bmc.2006.03.027 (Abbott Laboratories, 2006).

This experiment deals with Transient receptor potential cation channel subfamily V member 1 (Homo sapiens, UniProt Q8NER1). Nature of the experiment: Ca2+ Influx Functional Assay for the Determination of in Vitro Activity. The settings on record: pH 7.4; 22 °C.

Molecules are shown by their SMILES.

Chain of Transient receptor potential cation channel subfamily V member 1 (Q8NER1 whole entry): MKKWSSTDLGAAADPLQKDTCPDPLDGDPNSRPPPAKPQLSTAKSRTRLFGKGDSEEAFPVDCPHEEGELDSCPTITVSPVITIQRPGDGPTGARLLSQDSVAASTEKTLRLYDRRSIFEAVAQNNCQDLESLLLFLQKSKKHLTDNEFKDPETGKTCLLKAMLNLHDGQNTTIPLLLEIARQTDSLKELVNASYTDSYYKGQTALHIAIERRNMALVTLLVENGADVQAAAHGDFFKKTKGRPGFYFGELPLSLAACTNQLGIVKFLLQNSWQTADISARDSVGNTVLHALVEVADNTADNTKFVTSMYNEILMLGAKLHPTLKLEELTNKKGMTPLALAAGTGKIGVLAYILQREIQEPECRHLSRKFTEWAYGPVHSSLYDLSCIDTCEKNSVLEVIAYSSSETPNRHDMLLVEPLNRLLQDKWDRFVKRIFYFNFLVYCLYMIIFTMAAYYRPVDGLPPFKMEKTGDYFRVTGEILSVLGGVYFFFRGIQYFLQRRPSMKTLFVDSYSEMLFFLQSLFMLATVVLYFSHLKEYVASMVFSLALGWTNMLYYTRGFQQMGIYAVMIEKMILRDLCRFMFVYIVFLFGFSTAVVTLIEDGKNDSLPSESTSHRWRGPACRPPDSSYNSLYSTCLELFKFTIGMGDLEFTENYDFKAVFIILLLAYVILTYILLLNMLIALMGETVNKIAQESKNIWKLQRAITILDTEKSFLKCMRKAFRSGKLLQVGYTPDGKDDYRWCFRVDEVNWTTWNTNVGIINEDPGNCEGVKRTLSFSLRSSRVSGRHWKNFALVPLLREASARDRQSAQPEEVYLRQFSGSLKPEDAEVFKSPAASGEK

For orientation: EC50 means the concentration that produces a half-maximal response. A low value points to higher potency in that assay. Regarding `O=C(NCc1ccc(Cl)c(Cl)c1)Nc1cccc2[nH]ncc12` [1-[(3,4-dichlorophenyl)methyl]-3-1H-indazol-4-ylurea], the EC50 stood at 21 nM. This lies in the double-digit nanomolar range. For `O=C(NCc1ccc(Cl)c(Cl)c1)Nc1cccc2[nH]ccc12` [1-[(3,4-dichlorophenyl)methyl]-3-1H-indol-4-ylurea] the value was 220 nM. For `Cn1ncc2c(NC(=O)NCc3ccc(Cl)c(Cl)c3)cccc21` [1-[(3,4-dichlorophenyl)methyl]-3-(1-methyl-1H-indazol-4-yl)urea] the value was 120 nM.

Compound `O=C(NCc1cccc(F)c1)Nc1cccc2[nH]ccc12` [1-[(3-fluorophenyl)methyl]-3-1H-indol-4-ylurea] had a half-maximal effective concentration (EC50) of 2700 nM. In the case of `O=C(NCc1ccc(Br)cc1)Nc1cccc2[nH]ncc12` [1-[(4-bromophenyl)methyl]-3-1H-indazol-4-ylurea], the response was half-maximal at 13 nM (EC50). Turning to `O=C(NCc1ccc(Br)cc1)Nc1ccc2[nH]ncc2c1` [1-[(4-bromophenyl)methyl]-3-1H-indazol-5-ylurea], the EC50 is 3540 nM. Against the preceding compound, the EC50 is about 270-fold higher. Under `O=C(NCc1ccc(Br)cc1)Nc1cccc2[nH]ccc12` [1-[(4-bromophenyl)methyl]-3-1H-indol-4-ylurea] stands 110 nM; under `O=C(NCc1ccc(Br)cc1)Nc1ccc2[nH]ccc2c1` [1-[(4-bromophenyl)methyl]-3-1H-indol-5-ylurea], 5850 nM. On to `O=C(NCc1ccc(Br)cc1)Nc1ccc2cc[nH]c2c1` [1-[(4-bromophenyl)methyl]-3-1H-indol-6-ylurea], for which the EC50 stood at 3010 nM. For `O=C(NCc1ccc(Br)cc1)Nc1cccc2cc[nH]c12` [1-[(4-bromophenyl)methyl]-3-1H-indol-7-ylurea] the value was 180 nM. Under `Cn1ncc2c(NC(=O)NCc3ccc(Br)cc3)cccc21` [1-[(4-bromophenyl)methyl]-3-(1-methyl-1H-indazol-4-yl)urea] stands 76 nM; under `Cc1[nH]c2cccc(NC(=O)NCc3ccc(Br)cc3)c2c1C` [1-[(4-bromophenyl)methyl]-3-(2,3-dimethyl-1H-indol-4-yl)urea], 1470 nM; under `Cn1cc2c(NC(=O)NCc3ccc(Br)cc3)cccc2n1` [1-[(4-bromophenyl)methyl]-3-(2-methyl-2H-indazol-4-yl)urea], 1390 nM.

`O=C(NCc1ccc(Cl)cc1)Nc1cccc2[nH]ccc12` [1-[(4-chlorophenyl)methyl]-3-1H-indol-4-ylurea] gave an EC50 of 150 nM. Under `Cn1ncc2c(NC(=O)NCc3ccc(Cl)cc3)cccc21` [1-[(4-chlorophenyl)methyl]-3-(1-methyl-1H-indazol-4-yl)urea] stands 60 nM; under `O=C(NCc1ccc(F)cc1)Nc1cccc2[nH]ccc12` [1-[(4-fluorophenyl)methyl]-3-1H-indol-4-ylurea], 2710 nM. Under `Cn1ncc2c(NC(=O)NCc3ccc(F)cc3)cccc21` [1-[(4-fluorophenyl)methyl]-3-(1-methyl-1H-indazol-4-yl)urea] stands 720 nM. As to `O=C(NCc1ccc(C(F)(F)F)c(F)c1)Nc1cccc2[nH]ccc12` [1-{[3-fluoro-4-(trifluoromethyl)phenyl]methyl}-3-1H-indol-4-ylurea], a half-maximal response (EC50) required 40 nM. This EC50 lies about 18-fold lower than the previous one. For `O=C(NCc1ccc(Cl)c(C(F)(F)F)c1)Nc1cccc2[nH]ccc12` [1-{[4-chloro-3-(trifluoromethyl)phenyl]methyl}-3-1H-indol-4-ylurea] the value was 70 nM. Under `O=C(Cc1cccc2[nH]ncc12)NCc1ccc(C(F)(F)F)cc1` [2-(1H-indazol-4-yl)-N-{[4-(trifluoromethyl)phenyl]methyl}acetamide] stands 10200 nM. Under `O=C(Cc1cccc2[nH]ccc12)NCc1ccc(C(F)(F)F)cc1` [2-(1H-indol-4-yl)-N-{[4-(trifluoromethyl)phenyl]methyl}acetamide] stands 520 nM; under `O=C(NCc1ccc(Br)cc1)Nc1cccc2nc[nH]c12` [3-1H-1,3-benzodiazol-4-yl-1-[(4-bromophenyl)methyl]urea], 2470 nM; under `O=C(NCc1cccc(C(F)(F)F)c1)Nc1cccc2[nH]ncc12` [3-1H-indazol-4-yl-1-{[3-(trifluoromethyl)phenyl]methyl}urea], 44 nM. In turn, `O=C(NCc1ccc(OC(F)(F)F)cc1)Nc1cccc2[nH]ncc12` [3-1H-indazol-4-yl-1-{[4-(trifluoromethoxy)phenyl]methyl}urea] displayed a concentration for a half-maximal effect (EC50) of 11 nM. For `O=C(NCc1ccc(C(F)(F)F)cc1)Nc1cccc2[nH]ncc12` [3-1H-indazol-4-yl-1-{[4-(trifluoromethyl)phenyl]methyl}urea] the value was 9 nM.

As to `O=C(NCc1ccc(OC(F)(F)F)cc1)Nc1cccc2[nH]ccc12` [3-1H-indol-4-yl-1-{[4-(trifluoromethoxy)phenyl]methyl}urea], the EC50 was determined as 80 nM.

Regarding `O=C(NCc1ccc(C(F)(F)F)cc1)Nc1cccc2[nH]ccc12` [3-1H-indol-4-yl-1-{[4-(trifluoromethyl)phenyl]methyl}urea], a half-maximal effect (EC50) was put at 60 nM. The EC50 values of the last two compounds are within 1.5-fold of each other. Under `Cn1ncc2c(NC(=O)NCc3ccc(OC(F)(F)F)cc3)cccc21` [3-(1-methyl-1H-indazol-4-yl)-1-{[4-(trifluoromethoxy)phenyl]methyl}urea] stands 35 nM. For `O=C(Nc1cccc2[nH]ccc12)OCc1ccc(C(F)(F)F)cc1` [[4-(trifluoromethyl)phenyl]methyl N-(1H-indol-4-yl)carbamate] the value was 940 nM.
